What is called melting point is the temperature, or range, at which the solid turns liquid.

Compound `Cc1coc2cc(O)ccc12` registered a melting point of 92 °C. To `CN(C(=O)CCC#Cc1ccccn1)c1ccccc1` belongs 68 to 71 °C. The figure for `CNC1(C)CN(c2cc3c(cc2F)c(=O)c(C(=O)O)cn3C2CC2)C1` is more than 300 °C. To `CC(NS(=O)(=O)N1CCOCC1)P(=O)(c1ccccc1)c1ccccc1` (stereo not given) belongs 215 to 217 °C; to `Cn1c(=O)c(=O)[nH]c2cc(C(F)(F)F)ccc21`, 255 °C. Compound `CCn1c(-c2cc3ccccc3[nH]2)nc(-c2ccncc2)c1-c1ccc(Cl)cc1` gave a melting point of 279 to 280 °C. With `COc1cc2c(cc1F)C1(CO2)C(=O)N(Cc2ccc(C(F)(F)F)o2)c2ccccc21` (stereo not given), the melting point lay in the range of 45 to 47 °C.

In turn, `CO[C@@H](Cc1ccc(OCCc2nc(-c3ccc(C(F)(F)F)cc3)oc2C)c2ccccc12)C(=O)O` yielded a melting point of 167 to 168 °C. The figure for `CCc1cc(C(=O)c2ccccc2Cl)c(-n2c(C)nnc2Cc2cccc(OC(N)=O)c2Cl)s1` is 134 to 136 °C; for `CCSc1sc(C(=O)N2CCCC2)c2c1C(=O)CC(C)(C)C2` it is 129 to 132 °C. The figure for `CC(c1ccccc1)C(CS)C(=O)NCC(=O)O` (stereo not given) is 129 °C; for `CCC(c1ccccc1)(c1ccccc1)c1ccnc(C(N)=O)c1` it is 144 to 147 °C. The figure for `O=S(=O)(CCc1ccccc1)CCc1ccccc1` is 98 to 99 °C.

In turn, `O=C(NCCCCCCOC(=O)N1CCC(OC(=O)Oc2ccc([N+](=O)[O-])cc2)CC1)Oc1ccc(Oc2ccccc2)cc1` came in with a melting point of 93 to 94 °C. The figure for `Fc1cc(F)c(-c2c(Cl)nc3c(Cl)cnn3c2Cl)c(F)c1` is 128 °C. To `O=C(O)c1cc2c(Cl)ccc(Br)c2s1` belongs more than 300 °C. To `Cc1c(-c2ccc(O)cc2)n(Cc2ccc(OCCN3CCCCC3)cc2)c2ccc(O)cc12` belongs 214 to 217 °C; to `CCCCc1oc2ccccc2c1-c1ccc(-c2ccc(OC(Cc3ccccc3)C(=O)O)cc2)cc1` (stereo not given), 169 to 170 °C. Compound `CN1C(=O)C2=C(c3ccccc3)N(C)C(=O)C2=C1c1ccccc1` registered a melting point of 236 to 238 °C. To `COC(=O)c1ccc(-c2cccc(OC)c2)nc1` belongs 89.5 to 90 °C. To `COC(=O)c1c(C(C)C)nc2c(c1-c1ccc(F)cc1)CCC(=O)N2` belongs 191 °C. To `Cc1c(F)c(Br)cc(Br)c1C(=O)O` belongs 144 to 146 °C. The compound `Cc1cc2c(cc1Oc1ccc(C(=O)O)cc1)C(C)(C)CCC2(C)C` displayed a melting point of 208 to 210 °C. The figure for `CCOC(=O)CCc1cn(-c2ccccc2)nc1OCc1ccccc1` is 123 to 124 °C; for `O=C(Nc1ccc2nc(CN3CCCCC3)ccc2c1)c1ccc(-c2ccc(F)cc2F)nc1` it is 182 to 183 °C. To `CC(C)(C)c1cc(SCCCCSCC(=O)O)cc(C(C)(C)C)c1O` belongs 84 to 86 °C; to `CCOC(=O)c1c[nH]c2nc(NCc3ccc(Br)cc3)nn2c1=O`, 286 to 287 °C; to `CC(C#Cc1ccc(Oc2cccnc2)o1)N(O)C(N)=O` (stereo not given), 128 °C. `O=C(Nc1cc(Cl)ccc1N1CCCCC1)c1ccncc1` gave a melting point of 141 to 143 °C. To `COc1cc2c(cc1OC)C(c1cccc([N+](=O)[O-])c1)=NN=C(C)C2` belongs 196 to 198 °C; to `CC(CCC(=O)O)C1CCC2C3CCC4CC(OC=O)CCC4(C)C3CC(OC=O)C12C` (stereo not given), 123 to 125 °C; to `Cn1c2ccc(Cl)cc2c(=O)n2nc(C(N)=O)cc12`, more than 360 °C. For `CCC(=O)OC1CC2(CCN(CCCC(=O)c3ccc(F)cc3)C2)c2ccc(C)cc21` (stereo not given), the melting point was in the range of 153 to 155 °C. On to `CCN(CC)C(=O)C(C)(C)n1cc(C)c(-c2ccccc2)n1`, for which the melting point is 50 to 52 °C. Regarding `O=c1cc(C(F)(F)F)[nH]c(=O)n1-c1ccc(F)c(F)c1F`, the melting point was 137 to 138 °C. The figure for `CC(C)(C)OC(=O)NCC(CC(=O)Nc1ccccc1)c1ccc(Cl)cc1` (stereo not given) is 165 to 167 °C; for `N#CCC(=O)NNC(=O)Nc1ccsc1CC(=O)Oc1ccc([N+](=O)[O-])cc1` it is 132 to 135 °C; for `Cc1oc(-c2ccccc2)nc1COc1ccc(Cn2cc(CCC(=O)O)c(OC(C)C)n2)cc1` it is 106 to 107 °C. To `O=C(O)c1ccccc1SCc1nccc2ccccc12` belongs 170 to 172 °C; to `Cn1cc(-c2cccc(Cl)c2)c(=O)c(-c2cccc(Cl)c2)c1`, 164 to 167 °C; to `O=C1NCCOc2cc([N+](=O)[O-])ccc21`, 208 to 209 °C. To `Cc1sc(-c2ccccc2)nc1COc1ccc(COc2ncccc2CC#N)cc1` belongs 161 to 162 °C; to `CCOCc1nc2c(N)nc3cccnc3c2n1CC1(O)CC1`, 178 to 179 °C. `OC12CC3CC(C1)C(NC(c1ccccc1)(c1ccccc1)c1ccccc1)C(C3)C2` (stereo not given): the melting point is 166 to 170 °C.

As to `CCCc1c(OCc2ccccc2)ccc2c(=O)ccoc12`, the melting point lay within 87.5 to 89 °C. To `Cc1ccc(C2c3c(C)c(N4Cc5ccccc5C4)c(C)c(C)c3OC2(C)C)cc1` (stereo not given) belongs 141 to 143 °C; to `CSC(=C[N+](=O)[O-])NCCN(C)Cc1ccc(Cl)nc1`, 93 to 95 °C; to `CC(=O)NCC1CN(c2ccc(-c3cccc(CCl)c3)c(F)c2)C(=O)O1` (stereo not given), 128 to 130 °C. The figure for `COc1ccc2c(c1)Sc1c(ccc(OC)c1C=O)N2C` is 150 °C; for `Cc1cc(C)cc(C23SCCN2C(=O)c2ccccc23)c1` (stereo not given) it is 163 °C.

`O=C1c2cccnc2N(N2CCCCCC2)C2=NCCN12` had a melting point of 217 to 219 °C. For `COc1ccc(CNc2nc(SC)ncc2C(=O)OCc2ccccn2)cc1Cl`, the melting point lay in the range of 117 to 118 °C.

As for `CCN1C(Cl)=NC(OC)=NS1(=O)=O`, the melting point is 63 to 70 °C. To `CN1CC(CCCl)Oc2ncc(Cl)cc2C1=S` (stereo not given) belongs 125 to 127 °C; to `CCn1ccc2c(ccc3[nH]cc(CCN)c32)c1=O`, 224 to 227 °C; to `CCN(CC)c1ccc2c(-c3ccc(C#Cc4ccccc4)cc3)cc(=O)oc2c1`, 136 to 138 °C.

`CCOC(=O)Cc1ccc2c(c1)C(c1ccccc1Cl)=NCc1nnc(C)n1-2`: the melting point is 157 to 158 °C.

As for `COC(=O)c1ccncc1C(=O)c1ccc(-n2ccnc2)cc1`, the melting point lay within 125 to 128 °C.

Compound `CCCCCCCCCCCCOc1ccc(C(=O)c2ccccc2)cc1` returned a melting point of 63 to 64 °C. The figure for `NC(=O)CCCCCCCCCCC(=O)O` is 129 to 131 °C; for `CCCNC(=O)C1(CCCCN2CCC(N3Cc4ccccc4C3=O)CC2)CCc2ccccc21` (stereo not given) it is 61 to 63 °C; for `NCc1cccc(-c2cnc(-c3ccc(Cl)c(Cl)c3)[nH]2)c1` it is more than 250 °C. To `O=C(O)C1=Cc2c(ccc(Cl)c2-c2ccsc2)OC1C(F)(F)F` (stereo not given) belongs 211 to 214 °C; to `CS(=O)(=O)Nc1cc(NC(=N)c2ccccc2)cc(NC(=O)/C=C/c2ccccc2C(F)(F)F)c1`, 150 to 155 °C; to `Cc1cccc(-c2sc(N)nc2-c2ccc3ncoc3c2)n1`, 188 to 190 °C. In the case of `CCCCCCCCOc1cccc2c1C(=O)c1cccc(OCCCCCCCC)c1C2=O`, the melting point was in the range of 90 to 94 °C. To `CCN(CC)C(=O)C=Cc1ccc(C)c(C)c1` belongs 36.6 °C; to `Cc1ccc(-c2cc(F)c(F)cc2-c2ccc(S(C)(=O)=O)cc2)cc1C`, 125 to 126 °C; to `CCOC(=O)c1ccc(N=C(Nc2ccc(C(=O)OCC)cc2)c2ccc(C#N)cc2)cc1`, 205 to 213 °C. To `O=C(NCc1ccncc1)c1cc2ccnc(NCc3ccccc3)c2[nH]1` belongs 199 to 200 °C; to `COc1ccc(-c2cc3c(OC)cc(OC)cc3nc2OC)cc1`, 106 to 107 °C. To `Cc1nc(N2CCCC(Cc3ccc(F)cc3)C2=O)sc1C(=O)NCc1ccccc1` (stereo not given) belongs 154 to 155 °C; to `Cc1ccc(NC(=O)Cc2ccc(OC(C)(C)C(=O)O)cc2)cc1`, 164 °C; to `Oc1cc(-c2c(-c3ccccc3)nn3ccccc23)n[nH]1`, more than 300 °C. As to `COc1ccc(CNc2nc(SC)ncc2C=O)cc1Cl`, the melting point is 124 to 125 °C. To `OCCC1(CCO)CCN(Cc2ccccc2)CC1` belongs 75 to 78 °C. The figure for `CN1C(C)(C)CC(OC(=O)CCC(C)(c2ccc(O)c(C(C)(C)C)c2)c2ccc(O)c(C(C)(C)C)c2)CC1(C)C` is 203 °C; for `CCOc1cscc1C(=O)Nc1cc(Cl)ccc1SSc1ccc(Cl)cc1NC(=O)c1cscc1OCC` it is 179 to 181 °C; for `CC1CC1n1cc(C(=O)O)c(=O)c2cc(F)c(F)c(F)c21` (stereo not given) it is 167 to 168 °C. To `CCCCCCCCc1ccc(CCC(CO)(CO)[N+](=O)[O-])cc1` belongs 80 to 82 °C; to `Cc1nc(-c2c(Cl)cccc2Cl)n[nH]1`, 221 to 226 °C. The compound `O=c1c2c(O)c(O)ccc2c2cc(O)c(O)cc2n1Cc1ccccc1` returned a melting point of 224 to 225 °C. The figure for `COC(=O)c1ccc(Cl)c(-n2nnn(C)c2=O)c1Cl` is 135 to 137 °C. The figure for `N=C(N)NCCCC(NC(=O)CCS)C(=O)O` (stereo not given) is 230 °C. To `COc1cccc(CCc2c(CCNC(=O)CCCCC(=O)O)ccc(OC)c2OC)c1` belongs 119 to 121 °C; to `O=C(NC1CCc2ccccc2CC1=O)OCc1ccccc1` (stereo not given), 119 to 121 °C. As to `O=P(O)(O)C(O)(Cc1ccc2ccccc2c1)P(=O)(O)O`, the melting point stood at 257 °C. To `COc1c([N+](=O)[O-])cc2cc(-c3ccc([N+](=O)[O-])cc3)c(=O)oc2c1OC` belongs 219 to 223 °C; to `COc1cc(Br)c(N)c(C(=O)/C=C/c2ccc(OC)c(F)c2)c1`, 123 to 125 °C; to `CC(NC(Nc1ccc(Cl)cc1)=C(C#N)S(C)(=O)=O)C(C)(C)C` (stereo not given), 160 to 162 °C.

The record behind these values is a melting point compilation (Tetko et al.; mined from patent text by program, amines drawn as free bases though some values may be those of a salt).
